# Test results: patent US20250186496A1, “METHODS AND COMPOSITIONS FOR CONTROLLING T CELL ACTIVATION” (The General Hospital Corporation, priority 2022, published 2025)
# B1: mbdIL7: T cell factor: human IL-7, a CD80 hinge and transmembrane domain, and a lenalidomide-responsive zinc finger degron domain (protein)
# chain: MLLLVTSLLLCELPHPAFLLIPEQKLISEEDLDCDIEGKDGKQYESVLMVSIDQLLDSMKEIGSNCLNNEFNFFKRHICDANKEGMFLFRAARKLRQFLKMNSTGDFDLHLLKVSEGTTILLNCTGQVKGRKPAALGEAQPTKSLEENKSLKEQKKLNDLCFLKRLLQEIKTCWNKILMGTKEHWNTTKQEHFPDNLLPSWAITLISVNGIFVICCLTYCFAPRCRERRRNERLRRESVRPVGSGSGSGSGGFNVLMVHKRSHTGERPLQCEICGFTCRQKGNLLRHIKLHTGEKPFKCHLCNYACQRRDAL
# Tests used:
# [1] = tested on: IL-7; assay: Cytokine expression and soluble IL-7 in supernatant of CAR T cells cocultured with CD19+ Nalm6; type: cell-based
# Description: FIGS. 13A-13C show mbdIL7 is cleaved from the T cell surface in a state-dependent manner.
# [2] = tested on: STAT5; assay: STAT5 signaling over increasing concentrations of lenalidomide; type: cell-based, human; conditions: increasing lenalidomide concentration; CAR19 cells with mbdIL7
# [3] = tested on: mbdIL7-Luc; conditions: mice
# Method: The mdbIL7 was tagged with luciferase (mdbTL7-Luc), so mdbTL7 expression could be monitored in vivo. Mice were injected with Jurkat cells that were transduced with mdbIL7-Luc. The Jurkat mdbTL7-Luc cells were allowed to engraft for 25 days and then pomalidomide was administered to the mice (FIG. 14A).
# [4] = tested on: T cells expressing a CD19 CAR; assay: Expansion/activation of CAR T cells in production with or without exogenous IL-2 (population doublings); type: cell-based, human; conditions: CAR19 mbdIL7 without exogenous IL-2 vs CAR19 cells induced with IL-2
# Method: CAR19 T cells and mbdTL7 CAR19 T cells were cultured with and without exogenous IL-2. […] This was shown for two different types of cancer cells, Nalm6 and K562.
molecule,measurement,setting,value
Nc1cccc2c1CN(C1CCC(=O)NC1=O)C2=O (stereo not drawn) [lenalidomide],effect of lenalidomide on IL-7 cleavage without antigen exposure,[1]; CAR19 mbdIL7 not experiencing antigen exposure,no appreciable effects
same,control of cleavage of IL-7 from the T cell surface by lenalidomide,[1]; CAR19 mbdIL7 with antigen exposure,effectively controlled by lenalidomide in a dose-dependent manner
same,pSTAT5 expression,[2],a decrease in pSTAT5 expression
Nc1cccc2c1C(=O)N(C1CCC(=O)NC1=O)C2=O (stereo not drawn) [pomalidomide],decrease of mdbIL7-luc expression,[3]; 6 hours after administration of pomalidomide,more than 10 fold
same,mdbIL7-luc expression,[3]; by 24 hours after pomalidomide administration,returned to levels similar to pre-administration
B1,CAR19 cell doubling time / expansion rate,[4],not significantly affected
